Test results: article PMC2607543, “Peptides Derived from HIV-1 Integrase that Bind Rev Stimulate Viral Genome Integration” (PLoS ONE, 2009)
Where no end group is shown, it is not given here.

Columns and labels:
HeLa TZM-bl cells = assay: MTT cell toxicity assay, HeLa TZM-bl; format: cell-based; conditions: up to about 62 µM, Fig 4B
Experimental: (§1) Figure 4 Cell penetration and toxicity of INr peptides. (A) Fluorescein-labeled INr-1, INr-2, and IN-3 (a known nonpermeable peptide) each at 10 µM, were incubated for 2 h at 37°C with HeLa cells. The cells were then washed three times with PBS and visualized by confocal microscopy. (B) Cell toxicity was determined by MTT assay in HeLa TZM-bl cells. (C) Same as (B) but in H9 lymphocytes. Experimental conditions are described in Materials and Methods.
(§2) Following incubation of the cells with the indicated peptides, the medium was removed and the cells were further incubated in Earl's solution containing 0.3 mg/ml MTT for 1 h. Subsequently, the solution was removed and the cells were dissolved in 100 µl DMSO for 10 min at room temperature. The DMSO-solubilized cells were transferred to a 96-well ELISA plate and OD values were monitored at a wavelength of 570 nm.

H9 lymphocytes = assay: MTT cell toxicity assay, H9; format: cell-based; conditions: up to about 62 µM, Fig 4C
Experimental: as §1, §2

HIV-1 IN = conditions: ref [36]; cited from earlier work
Experimental: Dextran sulfate, various peptides and AZT were added at different times to HIV-1 infected Sup-T1 cells and the amount of viral P24 protein—reflecting efficiency of virus infection—was estimated at 48 h PI.

HIV-1 in Sup-T1 cells = assay: Time-of-addition assay, viral p24 in Sup-T1 cells; format: cell-based; conditions: MOI 2; dextran sulfate 20 µM, AZT 2 µM, LEDGF 402–411 12.5 µM; p24 at 48 h PI; Fig 8C
Experimental: Figure 8 Virus-cell adsorption and viral reverse-transcriptase activity are not affected by the INr peptides. (A and B) Estimation of viral DNA in virus-infected cells: Sup-T1 cells were incubated with the indicated peptides or with AZT for 2 h and then were infected with HIV. Following another 6 h incubation, the viral Gag (A) or Nef (B) DNA sequences were amplified using specific primers. The reaction was terminated after 30 cycles. Lanes: 1) INr-1 (12.5 µM); 2) INr-2 (12.5 µM); 3) AZT (2 µM); 4) untreated cells; 5) uninfected cells. […] (C) Influence of the time of addition on P24 production: Sup-T1 cells were infected with HIV-1 at a MOI of 2, and the indicated constituents were added at different time points PI (0, 2, 4,…, 24 h). Viral p24 was determined at 48 h PI. No addition (Blue X); no virus (Gray diamond); dextran sulfate 20 µM (Brown asterisk); AZT 2 µM (Red empty circle); INr-1 12.5 µM (Green diamond); INr-2 12.5 µM (Magenta square); LEDGF 402–411 (Black full circle).
Sup T1 cells were infected with wild-type HIV-1 at a MOI of 2, and the test compounds were added at different time points after infection (0, 2, 4,…, 24 h). Viral p24 production was determined at 48 h PI [59]. Dextran sulfate was tested at 20 µM, AZT at 2 µM, LEDGF 402-411, INr-1 and INr-2 at 12.5 µM.

[1] = tested on: viral Gag or Nef DNA sequences; format: cell-based, HIV-1; conditions: INr 12.5 µM or AZT 2 µM, 2 h before infection, 6 h after; Gag (A) or Nef (B) PCR; Fig 8A and B
HIV-1 infected cells = assay: Cell death and syncytia formation in infected, INr-treated cells; format: cell-based; conditions: combination of the peptide and the virus; not shown

Compound | Toxic effect, HeLa TZM-bl cells (HeLa TZM-bl cells) | Toxic effect, H9 T-cell lymphocytes (H9 lymphocytes) | Time of addition post infection up to which infection is inhibited (HIV-1 in Sup-T1 cells) | other results
CC[C@H](C)[C@H](NC(=O)[C@H](CCCCN)NC(=O)CNC(=O)[C@H](CCC(=O)O)NC(=O)[C@H](CC(C)C)NC(=O)[C@H](Cc1c[nH]cn1)NC(=O)[C@@H](NC(=O)[C@@H](N)Cc1c[nH]c2ccccc12)[C@@H](C)O)C(=O)N[C@H](C(=O)N[C@@H](CC(C)C)C(=O)N[C@H](C(=O)N[C@@H](C)C(=O)N[C@H](C(=O)N[C@@H](Cc1c[nH]cn1)C(=O)N[C@H](C(=O)N[C@@H](C)C(=O)O)C(C)C)C(C)C)C(C)C)[C@@H](C)CC [INr-1] | No toxic effect | No toxic effect | – | –
LEDGF 402–411: LEDGF-derived peptide (aa 402–411) which has been shown to block viral IN enzymatic activity (KIRRFKVSQV; UniProt O75475 402-411, looked up, fragment) | – | – | about 18 h | Inhibition of IN enzymatic activity by LEDGF-derived peptides (HIV-1 IN): block viral IN enzymatic activity in vitro and in vivo
Cc1cn([C@H]2C[C@H](N=[N+]=[N-])[C@@H](CO)O2)c(=O)[nH]c1=O [AZT, azidothymidine] | – | – | ≤ 10 h | Effect on reverse transcription / reverse-transcribed viral DNA [1]: reverse-transcribed viral DNA is absent
dextran sulfate | – | – | ≤ 4 h | –
WGSNFTSTTVKA [INr-2] | No toxic effect | No toxic effect | – | Cell death and syncytia formation with peptide and virus (HIV-1 infected cells): increase in cell death and syncytia formation
